Converted amounts (≈) assume the structure as drawn.
Legend:
[1] = molecular target: recombinant Pseudomonas aeruginosa LpxC (Pseudomonas aeruginosa (strain ATCC 15692 / DSM 22644 / CIP 104116 / JCM 14847 / LMG 12228 / 1C / PRS 101 / PAO1), UniProt P47205); assay: Inhibition of LpxC enzymatic activity (fluorescamine assay); format: biochemical; settings: recombinant P. aeruginosa LpxC 5 nM, substrate 10 μM, 25° C., 120 minutes; read-out: IC50
How it was run: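 Recombinant P. aeruginosa LpxC (5 nM) with substrate UDP-3-O-(R-3-hydroxydecanoyl)-GlcNAc (10 μM), 120 min at 25 °C; compound 8 points, 4-fold dilution, 0.61-10,000 nM. Product detected by fluorescamine (ex 390/em 495 nm) after stopping with pH 8.0 phosphate; % inhibition versus DMSO control.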

[2] = system: E. coli ATCC 25922; assay: Antibacterial activity, MIC by broth microdilution (CLSI); format: cell-based; settings: Escherichia coli, ATCC25922; E. coli ATCC 25922, 35° C., 18 to 24 hours; read-out: MIC(E. coli)
How it was run: (§1)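 Broth microdilution per CLSI, compound at 64-0.06 μg/mL final in twofold steps (1% DMSO from 100× working solutions). Inoculum 5×10^5 cfu/ml; plates incubated at 35° C for 18-24 hours.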

[3] = system: K. pneumoniae ATCC13883; assay: as above; format: cell-based; settings: Klebsiella pneumoniae; K. pneumoniae ATCC13883, 35° C., 18 to 24 hours; read-out: MIC(K. Pneumoniae)
How it was run: as §1

[4] = Pharmacokinetic assay in mice; format: in vivo; settings: ICR mice, 15 mg/kg, IV; for AUC(0-inf) / clearance / half-life / Vd: male, mouse, plasma; for AUC(0-inf): read-out: Area under curve AUC0-∞; for clearance: read-out: Clearance CL; for half-life: read-out: Half life T½ (converted); for Vd: read-out: Volume of distribution Vdss
Experimental: ICR mice were used as test animals. The injected compounds 17 and 32 of the present disclosure were measured using the LC/MS/MS method to determine the drug concentrations in plasma at different times, in order to study the pharmacokinetic characteristics of the compounds of the present disclosure in mice.
ICR mice, male, weighing 27.8-38 g, were purchased from VitalRiver Laboratory Animal Technology Co., Ltd.
An appropriate amount of the pharmaceutical compound was weighed, added with an appropriate amount of 10% HP-β-CD, vortexed, sonicated for 20 minutes to dissolve the particles, and filtered (PTFE, […]) to obtain […] of a colorless solution.
ICR mice were divided into groups of injection of each test compound (nine mice in each group), fasted overnight, then administered by injection (IV, at an amount of 15 mg/kg and a volume of 5 mL/kg), and fed 4 hours after administration.
About 0.1 mL of blood was collected from the orbit before administration and 0.083 hours, 0.25 hours, 0.5 hours, 1 hour, 2 hours, 4 hours, 8 hours, 12 hours and 24 hours after administration. The whole blood samples were placed in EDTA-K2-containing anticoagulant tubes. After collected, the blood samples were placed on ice, and centrifuged to separate plasma (centrifugation conditions: 1500 g, 10 minutes). The collected plasma was stored at −40 to −20° C. before analysis.
The content of the compound to be tested in the plasma of mice after injection was determined using LC-MS/MS.

[5] = system: Klebsiella pneumoniae ATCC 51504; format: in vivo, CD-1 female mice; settings: CD-1 mice; for Change in the body weight of the mice / Reduction of total bacterial load of Klebsiella pneumoniae ATCC 51504 in the lungs compared with the control group: 150 mg/kg intravenous; for Bacterial load in lung, LOG (CFU/mouse), Mean: 150 mg/kg intravenous 2 hours after infection, lungs taken 24 hours after infection
Experimental: The efficacy of the compounds of the present disclosure against pulmonary infection caused by Klebsiella pneumoniae ATCC 51504 was determined by the following method. The experimental process is briefly described as follows: The experimental day of inoculating Klebsiella pneumoniae ATCC 51504 was defined as Day 0. On Day −4 and Day −1, CD-1 female mice (6-8 weeks old, purchased from VitalRiver Experimental Animal Technology Co., Ltd., divided into 3 groups, 5 animals in each group) were intraperitoneally injected with cyclophosphamide to induce an immunosuppressive state in mice. Klebsiella pneumoniae ATCC 51504 cells were cultured in advance on a Muaeller-Hinton agar culture plate in a 37° C. incubator overnight. The single colonies were collected, suspended in physiological saline, and adjusted to the required concentration using a turbidity meter. CD-1 female mice were inoculated via intranasal instillation. Each mouse was inoculated with 50 μL of bacterial solution, with an inoculation volume of 1×10^7 CFU/mouse. Two hours after infection, CD-1 female mice were intravenously administered with compound 17 and compound 32 at 150 mg/kg (solvent: 10% HP-β-CD in Sterile Water for Injection). 24 hours after infection, CD-1 female mice were euthanized. The lung tissue was taken, homogenized with physiological saline, and then diluted 10 times in a gradient for a total of 5 times. Then, 10 μL of lung tissue homogenate of each dilution ratio was taken, and inoculated into bacterial culture plates, which were incubated in a 37° C. incubator overnight, then photographed and saved. A culture plate with an appropriate dilution ratio was selected to count the number of colonies and calculate the bacterial load in the lung tissue to evaluate the efficacy of the drug in inhibiting bacteria. The determination results of the efficacy of the compounds of the present disclosure on pulmonary infection caused by Klebsiella pneumoniae are shown in Tables 4 and 5 below.

## C[C@H](O)c1nccn1Cc1cc(-c2ccc(C#Cc3ccc(CN4CCC(C(=O)O)CC4)cc3)cc2)on1 [Example 17, (S)-1-(4-((4-(3-((2-(1-hydroxyethyl)-1H-imidazol-1-yl)methyl)isoxazol-5-yl)phenyl)ethynyl)benzyl)piperidin-4-carboxylic acid]
[1]
  IC50: 6.7 nM
[2]
  MIC: 4 µg/mL (≈ 7.83 µM)
[3]
  MIC: 8 µg/mL (≈ 15.7 µM)
[4]
  Pharmacokinetic properties (conclusion): good pharmacokinetic properties
  AUC(0-inf): 22500 ng·h/mL
  clearance: 11.1 mL/min/kg
  half-life: 1.3 h
  Vd: 0.48 L/kg
[5]
  Change in the body weight of the mice: no significant change
  Reduction of total bacterial load of Klebsiella pneumoniae ATCC 51504 in the lungs compared with the control group: 4.78 log value
  Bacterial load in lung, LOG (CFU/mouse), Mean: 4.17 LOG (CFU/mouse)

## C[C@H](O)c1nccn1Cc1cc(-c2ccc(C#Cc3ccc(CN4CC(CC(=O)O)C4)cc3)cc2)on1 [Example 32, (S)-2-(1-(4-((4-(3-((2-(1-hydroxyethyl)-1H-imidazol-1-yl)methyl)isoxazol-5-yl)phenyl)ethynyl)benzyl)azetidin-3-yl)acetic acid]
[1]
  IC50: 19.8 nM
[2]
  MIC: 2 µg/mL (≈ 4.03 µM)
[3]
  MIC: 4 µg/mL (≈ 8.06 µM)
[4]
  Pharmacokinetic properties (conclusion): good pharmacokinetic properties
  AUC(0-inf): 20300 ng·h/mL
  clearance: 12.3 mL/min/kg
  half-life: 1.21 h
  Vd: 0.612 L/kg
[5]
  Change in the body weight of the mice: no significant change
  Reduction of total bacterial load of Klebsiella pneumoniae ATCC 51504 in the lungs compared with the control group: 4.24 log value
  Bacterial load in lung, LOG (CFU/mouse), Mean: 4.42 LOG (CFU/mouse)

Source: patent US20240382465A1, “AROMATIC ACETYLENE DERIVATIVE, AND PREPARATION METHOD THEREFOR AND USE THEREOF” (priority 2021, published 2024)
